According to US11518996B2, “Methods and compositions for treating cancer using peptide nucleic acid-based agents” (MEMORIAL SLOAN-KETTERING CANCER CENTER, priority 2013, dated 2022):
“Also recorded” adds a separate entry of the source.

How the values were obtained:
[1] = system: BRAF V600E mutant protein; assay: Western blot of BRAF V600E mutant protein in OCM1A cells; type: cell-based; conditions: 750 nM, over 72 hours
Experimental: (§1) Cells were treated for 24, 48 and 72-hour treatments with 750 nM PNA and lysed in radioimmunoprecipitation assay (RIPA) buffer supplemented with protease inhibitor cocktail tablets (Roche Diagnostics) and 1 mmol/L Na3VO4. Equal amounts of protein were loaded on 4% to 12% PAGE gels (Invitrogen). Polyvinylidene difluoride (PVDF) membranes were blocked with 5% nonfat dried milk and probed with p-MEK, MEK, p-ERK 1/2 (T202/Y204), ERK 1/2, cleaved PARP, α-tubulin (Cell Signaling Technology), BRAF (Santa Cruz Biotechnology), LC3 (Novus Biologicals) and BRAF V600E (Spring Bioscience).
(§2) FIGS. 3A-3C depict BRAF mutant and BRAF wild type protein expression in melanoma cells (C918 and OCM1A) treated with 750 nM of the PNA I-292-3 L2LP NHAc for 24, 48 or 72 hours. FIG. 3A depicts the measurement of mutant and total BRAF protein expression as measured by Western blotting in C918 and OCM1A cells. Tubulin expression was also measured as a loading control. […]
as §2, with “4A-4C” for “3A-3C”, “I-292-9 L2” for “I-292-3 L2LP”, “4A” for “3A”

BRAF V600E mRNA [2] = assay: qRT-PCR of BRAF V600E mRNA in OCM1A cells; type: cell-based; conditions: 750 nM, 48 hours, RT-PCR, normalized with GAPDH
Experimental: (§3) C918 and OCM1A cells were treated with 750 nM PNA (I-292-3 L2LP) for 48 hours. Mutant BRAF mRNA expression in cells was quantified using RT-PCT. Specifically, cells were treated and then lysed using TRIzol Reagent® (Invitrogen). Reverse transcription of 1 μg of RNA was done using the SuperScript III First-Strand Synthesis System (Invitrogen). Quantitative real-time PCR (qRT-PCR) assays were performed using the 7300 Real Time PCR System (Applied Biosystems). TaqMan gene expression assays, which include gene-specific probe primer sets (Applied Biosystems), were used to detect the indicated genes and glyceraldehyde-3-phosphate dehydrogenase (GAPDH)/hypoxanthine phosphoribosyltransferase (HPRT) mRNA. The relative expression of each gene was calculated by the ΔΔCT method. Cells wild-type for BRAF (C918) as well as mutant cell lines (OCM1A and SK-Mel 7) were treated for 48 hours with 750 nM I-292-3 L2LP NHAc. According to FIG. 5A, BRAF^V600E mRNA expression was quantified using RT-PCR. Relative Quantity (RQ) values were normalized with GAPDH loading control and set relative to the mutant BRAF mRNA expression in untreated OCM1A cells (ND). […] According to FIG. 5B, Both BRAF^V600E and total BRAF mRNA expression in SK-Mel 7 cells were quantified using RT-PCR. RQ values were normalized with GAPDH and set relative to untreated cells. […]

OCM1A cells = assay: Cell viability assay (CCK8), BRAF V600E mutant uveal melanoma cells; conditions: increasing doses, 72 hours
Experimental: (§4) PNA compounds targeting the BRAF V600E gene mutation were tested against melanoma cell lines that are either BRAF wild type (C918) or BRAF V600E mutant (OCM1A and SK-MEL 7). C918 and OCM1A are uveal melanoma cell lines while SK-MEL 7 is a cutaneous melanoma cell line. C918 was kindly provided by Robert Folberg (University of Illinois, Chicago, Ill.). OCM1A was from Dr. William Harbour (Washington University, St. Louis, Mo.). SK-MEL 7 was from Alan Houghton (Memorial Sloan-Kettering Cancer Center, New York, N.Y.). Cells were cultured in RPMI medium supplemented with 10% FBS, 100 units/mL penicillin, and […] streptomycin and maintained at 37° C. in 5% CO2.
(§5) PNA compounds targeting the BRAF V600E gene mutation were tested against melanoma cell lines that are either BRAF wild-type (C918) or BRAF V600E mutant (OCM1A and SK-MEL 7). C918 and OCM1A are uveal melanoma cell lines while SK-MEL 7 is a cutaneous melanoma cell line. […] Cells were treated with increasing doses of several PNA derivatives for 72 hours after which the cell viability was measured and calculated relative to the untreated cells. Cells were plated in 96-well plates and treated in triplicates with the indicated concentrations of PNA derivative. Viability was assessed after 72 hours of treatment using the Cell Counting Kit 8 (CCK8) from Dojindo Molecular Technologies according to the manufacturer's instructions.

BRAF [3] = assay: BRAF expression by Western blot in OCM1A cells; type: cell-based
Experimental: as §5, §1

[4] = system: total BRAF wild type protein; assay: Western blot of total BRAF protein in C918 cells; type: cell-based; conditions: 750 nM, over 72 hours
Experimental: as §1, §2
as §2, with “4A-4C” for “3A-3C”, “I-292-9 L2” for “I-292-3 L2LP”, “4A” for “3A”

BRAF [5] = assay: BRAF expression by Western blot in SK MEL 7 cells; type: cell-based
Experimental: as §5, §1

OCM1A = assay: Xenograft mouse trial, tumor size; type: in vivo, Athymic mice
Experimental: Athymic mice (3 per group) were inoculated with OCM1A. After 15 days, the size of the developing tumor was sufficient for further measurement and monitoring. The treatment group was given 50 mg/kg dosage of I-292-3 L2LP-NHAc on days 15, 17, 20 and 22. […] Moreover, one week following the last dose, the average tumor size of the treated group began to shrink by 25% over 4 days.

[6] = system: total BRAF wild type protein; assay: Western blot of total BRAF protein in OCM1A cells; type: cell-based; conditions: 750 nM, over 72 hours
Experimental: as §1, §2
as §2, with “4A-4C” for “3A-3C”, “I-292-9 L2” for “I-292-3 L2LP”, “4A” for “3A”

total BRAF mRNA = assay: qRT-PCR of total BRAF mRNA in SK-Mel 7 cells; type: cell-based; conditions: 750 nM, 48 hours, RT-PCR, normalized with GAPDH
Experimental: as §3

[7] = Toxicity in xenograft mice by weight loss and activity; type: in vivo, Athymic mice; conditions: OCM1A xenograft mice, 50 mg/kg doses, 28 day study
Experimental: Toxicity of the tested PNA derivative was evaluated by measuring weight loss of test animals.

BRAF V600E mRNA [8] = assay: qRT-PCR of BRAF V600E mRNA in SK-Mel 7 cells; type: cell-based; conditions: 750 nM, 48 hours, RT-PCR, normalized with GAPDH
Experimental: as §3

SK-MEL 7 cells = assay: Cell viability assay (CCK8), BRAF V600E mutant cutaneous melanoma cells; conditions: increasing doses, 72 hours
Experimental: as §4, §5

Row | Molecule | BRAF V600E mutant protein expression in OCM1A cells [1] | BRAF V600E mRNA expression in OCM1A cells (BRAF V600E mRNA [2]) | suppression of cell viability in OCM1A cells (OCM1A cells) | decrease in BRAF expression, OCM1A cells (BRAF [3]) [%] | total BRAF wild type protein in C918 cells [4] | decrease in BRAF expression, SK MEL 7 cells (BRAF [5]) [%] | tumor volume regression (OCM1A; OCM1A xenograft mice, 50 mg/kg IP doses (FIG. 6A legend)) [%] | average tumor size as percentage of the untreated control group (OCM1A; OCM1A xenograft, 50 mg/kg on days 15, 17, 20 and 22, day 28) [%] | shrinkage of average tumor size of the treated group (OCM1A; OCM1A xenograft, 50 mg/kg, over 4 days, one week following the last dose) [%] | total BRAF wild type protein in OCM1A cells [6] | total BRAF mRNA expression in SK-Mel 7 cells (total BRAF mRNA) | animal weight and activity (toxicity, words) [7] | BRAF V600E mRNA expression in SK-Mel 7 cells (BRAF V600E mRNA [8]) | suppression of cell viability in SK-MEL 7 cells (SK-MEL 7 cells)
1 | CCCCCCCCCCCCCCCC(=O)NCCCC[C@H](NC(=O)[C@@H](CCCCN)NC(=O)[C@@H](CCCCN)NC(=O)[C@H](NC(=O)[C@@H](CCCCN)NC(=O)[C@@H](CCCNC(=N)N)NC(=O)[C@@H](CCCCN)NC(=O)[C@@H](CCCCN)NC(=O)[C@@H](CCCCN)NC(=O)[C@H]1CCCN1C(=O)[C@@H](CCCCN)NC(=O)CN(CCNC(=O)CN(CCNC(=O)CN(CCNC(=O)CN(CCNC(=O)CN(CCNC(=O)CN(CCNC(=O)CN(CCNC(=O)CN(CCNC(=O)CN(CCNC(=O)CN(CCNC(=O)CN(CCNC(=O)CN(CCNC(=O)CN(CCNC(=O)CN(CCNC(=O)CN(CCNC(=O)CN(CCNC(=O)CN(CCNC(=O)CN(CCNC(=O)[C@@H](CCCCN)NC(=O)[C@@H](CCCCN)NC(=O)[C@H](CCCCNC(=O)CCCCCCCCCCCCCCC)NC(C)=O)C(=O)Cn1ccc(N)nc1=O)C(=O)Cn1ccc(N)nc1=O)C(=O)Cn1cc(C)c(=O)[nH]c1=O)C(=O)Cn1ccc(N)nc1=O)C(=O)Cn1cnc2c(N)ncnc21)C(=O)Cn1cnc2c(N)ncnc21)C(=O)Cn1cnc2c(=O)[nH]c(N)nc21)C(=O)Cn1cnc2c(N)ncnc21)C(=O)Cn1cnc2c(=O)[nH]c(N)nc21)C(=O)Cn1cc(C)c(=O)[nH]c1=O)C(=O)Cn1cnc2c(N)ncnc21)C(=O)Cn1cnc2c(N)ncnc21)C(=O)Cn1cc(C)c(=O)[nH]c1=O)C(=O)Cn1cnc2c(N)ncnc21)C(=O)Cn1cnc2c(N)ncnc21)C(=O)Cn1cc(C)c(=O)[nH]c1=O)C(=O)Cn1cnc2c(N)ncnc21)C(=O)Cn1cc(C)c(=O)[nH]c1=O)C(C)C)C(N)=O [I-292-3 L2LP NHAc, AcNH-Lys(palmitoyl)-dLys-dLys-C CT CAAGAGTAATAATAT-dLys-dPro-dLys-dLys-dLysdArg-dLys-dVal-dLys-dLys-Lys(palmitoyl)-CONH2] | decreased expression | significantly decreased | significant suppression of cell viability | 40.3 | no significant reduction | 62.4 | 50 | 35 | 25 | no significant reduction | no observed decrease | no weight loss or changes in daily activity | decreased significantly | significant suppression of cell viability
2 | AcNH-Lys(palmitoyl)-dLys-dLys-CCTCAAGAGTAATAATAT-dLys-dArg3-dGln-dArg2-dLys2-dArg-Gly-dTyr-dLys-dLys-Lys(palmitoyl)-CONH2 [I-292-9 L2 NHAc] | decreased expression | – | significant suppression of cell viability | – | no significant reduction | – | – | – | – | slight decrease; also recorded: slight reduction | – | – | – | significant suppression of cell viability
